Source: ChEMBL document CHEMBL1201862, “PubChem BioAssay data set” (2004)
Counter-ions that a name gives are not always drawn. Active and inactive are the calls of the source.

Columns and labels:
[1] = molecular target: Heat shock protein HSP 90-alpha (Homo sapiens, UniProt P07900); assay: Luminescence-based dose response biochemical high throughput screening assay for inhibitors of the Heat Shock Protein 90 (HSP90). [Related pubchem assays: 1831 (Summary AID.), 1846 (Confirmation screen.), 1789 (Primary screen.)]
[2] = Luminescence Cell-Based Dose Response to Identify Activators of 5'UTR Stem-Loop Driven Prion Protein mRNA Translation in H4-C Neuroglioblastoma Cells. [Related pubchem assays: 1829 (Project Summary), 1814 (Primary HTS)]; assay type: functional
[3] = Luminescence Cell-Based Dose Confirmation to Identify Activators of 5'UTR Stem-Loop Driven Alpha-Synuclein mRNA Translation in H4 Neuroglioblastoma Cells. [Related pubchem assays: 1829 (Project Summary), 1814 (Primary HTS)]; assay type: functional
[4] = Luminescence Cell-Based Dose Response HTS to Identify Activators of Luciferase Translation or Activity in H4 […] Cells. [Related pubchem assays: 1829 (Project Summary), 1814 (Primary HTS)]; assay type: functional
[5] = Luminescence Cell-Based Dose Response to Identify Activators of Luciferase Translation or Activity in H4-C Neuroglioblastoma Cells. [Related pubchem assays: 1829 (Project Summary), 1814 (Primary HTS)]; assay type: functional
[6] = tested on: H4; assay: Luminescence Cell-Based Dose Response HTS to Identify Activators of 5'UTR Stem-Loop Driven Prion Protein mRNA Translation in H4 Neuroglioblastoma Cells. [Related pubchem assays: 1829 (Project Summary), 1814 (Primary HTS)]; assay type: functional; settings: Homo sapiens
[7] = Luminescence Cell-Based Dose Confirmation HTS to Identify Activators of 5'UTR Stem-Loop Driven Alpha-Synuclein mRNA Translation in H4 Neuroglioblastoma Cells. [Related pubchem assays: 1829 (Project Summary), 1814 (Primary HTS)]; assay type: functional
[8] = HPDE-C7 pancreatic duct cell viability loss – fluorescence, HTS (AID 430); assay type: functional, cell-based; settings: Homo sapiens
[9] = viability loss of HPDE-C7K cells – cell-based, fluorescence, HTS, primary screen (AID 431); assay type: functional; settings: Homo sapiens
[10] = molecular target: T1, Heat shock factor protein 1 (Mus musculus, UniProt P38532); assay: decrease of HSF1-responsive luciferase luminescence – cell-based, NIH3T3, dose retest, confirmation (AID 2382); assay type: functional;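 note: NIH3T3 fibroblasts with HSF1-driven luciferase reporter stressed by proteasome inhibitor MG132; luminescence from HSF1-driven luciferase expression after 8 hours of MG132 stress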
T1 sequence (P38532 whole entry): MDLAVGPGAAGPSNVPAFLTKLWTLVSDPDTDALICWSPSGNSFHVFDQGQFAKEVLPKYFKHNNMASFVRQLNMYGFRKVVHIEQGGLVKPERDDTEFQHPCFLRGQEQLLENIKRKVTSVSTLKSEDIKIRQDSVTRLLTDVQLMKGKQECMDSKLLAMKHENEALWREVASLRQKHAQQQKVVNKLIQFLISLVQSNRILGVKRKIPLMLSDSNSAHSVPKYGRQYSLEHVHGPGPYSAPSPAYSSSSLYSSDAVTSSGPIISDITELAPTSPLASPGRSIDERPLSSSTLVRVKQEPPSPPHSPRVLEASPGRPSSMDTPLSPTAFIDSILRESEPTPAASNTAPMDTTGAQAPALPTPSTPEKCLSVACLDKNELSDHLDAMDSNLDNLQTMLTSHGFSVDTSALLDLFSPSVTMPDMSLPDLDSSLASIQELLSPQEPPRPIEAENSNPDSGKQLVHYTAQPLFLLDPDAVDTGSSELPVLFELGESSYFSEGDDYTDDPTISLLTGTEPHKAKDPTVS

[11] = molecular target: Glyceraldehyde-3-phosphate dehydrogenase (Homo sapiens, UniProt P04406)
[12] = molecular target: T2, Tyrosine-protein phosphatase non-receptor type 22 (Homo sapiens, UniProt Q9Y2R2); assay: inhibition of lymphoid tyrosine phosphatase LYP – biochemical, pCAP fluorogenic substrate, fluorescence, set 3, SAR follow-up (AID 449727); assay type: functional
T2 sequence (Q9Y2R2 whole entry): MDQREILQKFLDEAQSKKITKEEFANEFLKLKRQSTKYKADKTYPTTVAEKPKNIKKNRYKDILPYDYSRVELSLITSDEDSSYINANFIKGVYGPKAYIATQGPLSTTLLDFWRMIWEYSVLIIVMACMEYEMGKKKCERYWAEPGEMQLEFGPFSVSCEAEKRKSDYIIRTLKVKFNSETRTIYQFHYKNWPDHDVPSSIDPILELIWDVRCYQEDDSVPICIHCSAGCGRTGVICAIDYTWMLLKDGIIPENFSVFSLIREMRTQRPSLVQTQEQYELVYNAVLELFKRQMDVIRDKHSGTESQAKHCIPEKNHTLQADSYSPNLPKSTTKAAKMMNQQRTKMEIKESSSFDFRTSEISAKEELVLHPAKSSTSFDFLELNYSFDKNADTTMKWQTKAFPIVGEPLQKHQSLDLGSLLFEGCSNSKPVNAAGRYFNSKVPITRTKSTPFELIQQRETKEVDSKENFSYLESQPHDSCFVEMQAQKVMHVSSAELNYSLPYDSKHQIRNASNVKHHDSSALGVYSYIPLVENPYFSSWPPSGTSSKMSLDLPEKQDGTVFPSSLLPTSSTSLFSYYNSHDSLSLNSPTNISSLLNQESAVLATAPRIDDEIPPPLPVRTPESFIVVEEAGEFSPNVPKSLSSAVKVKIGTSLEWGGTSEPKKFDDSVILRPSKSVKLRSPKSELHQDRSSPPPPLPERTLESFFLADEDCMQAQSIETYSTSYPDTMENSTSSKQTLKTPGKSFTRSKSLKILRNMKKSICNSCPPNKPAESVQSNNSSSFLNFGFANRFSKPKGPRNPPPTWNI

[13] = molecular target: T2, Tyrosine-protein phosphatase non-receptor type 22; assay: SAR LYP1 Fluorescent Assay using OMFP substrate for In Vitro dose response studies - Set 3. [Related pubchem assays (depositor defined):AID1779, AID1784, AID2140, AID2686]; assay type: functional
[14] = molecular target: T3, Tyrosine-protein phosphatase non-receptor type 12 (Homo sapiens, UniProt Q05209); assay: SAR Selectivity Analysis of small molecule inhibitors of PEST using pCAP in a fluorescence assay. [Related pubchem assays (depositor defined):AID1779, AID1784, AID2135]; assay type: functional
T3 sequence (Q05209 whole entry): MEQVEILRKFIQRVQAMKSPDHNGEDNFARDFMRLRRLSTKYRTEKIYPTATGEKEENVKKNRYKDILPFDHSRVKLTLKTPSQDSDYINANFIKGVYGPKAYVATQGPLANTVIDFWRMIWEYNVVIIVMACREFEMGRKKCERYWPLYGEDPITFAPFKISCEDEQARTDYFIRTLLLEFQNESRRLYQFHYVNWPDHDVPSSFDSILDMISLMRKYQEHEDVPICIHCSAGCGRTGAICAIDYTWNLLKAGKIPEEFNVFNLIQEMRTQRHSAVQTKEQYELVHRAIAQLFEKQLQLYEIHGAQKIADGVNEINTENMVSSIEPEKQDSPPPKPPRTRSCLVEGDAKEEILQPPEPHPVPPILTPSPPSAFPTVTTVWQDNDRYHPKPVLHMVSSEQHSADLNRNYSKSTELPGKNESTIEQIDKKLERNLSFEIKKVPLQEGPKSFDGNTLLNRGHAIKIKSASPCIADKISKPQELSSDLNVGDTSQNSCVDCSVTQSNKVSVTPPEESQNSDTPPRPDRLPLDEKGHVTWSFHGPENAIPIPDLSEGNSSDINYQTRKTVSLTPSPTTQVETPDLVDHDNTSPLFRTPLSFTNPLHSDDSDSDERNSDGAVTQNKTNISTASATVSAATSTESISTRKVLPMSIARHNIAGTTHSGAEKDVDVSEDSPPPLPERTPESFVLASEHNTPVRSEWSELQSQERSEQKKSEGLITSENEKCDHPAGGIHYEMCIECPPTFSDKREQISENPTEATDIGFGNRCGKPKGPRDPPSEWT

[15] = molecular target: T4, DNA repair protein RAD52 homolog (Homo sapiens, UniProt P43351); assay type: functional, biochemical
T4 sequence (P43351 whole entry): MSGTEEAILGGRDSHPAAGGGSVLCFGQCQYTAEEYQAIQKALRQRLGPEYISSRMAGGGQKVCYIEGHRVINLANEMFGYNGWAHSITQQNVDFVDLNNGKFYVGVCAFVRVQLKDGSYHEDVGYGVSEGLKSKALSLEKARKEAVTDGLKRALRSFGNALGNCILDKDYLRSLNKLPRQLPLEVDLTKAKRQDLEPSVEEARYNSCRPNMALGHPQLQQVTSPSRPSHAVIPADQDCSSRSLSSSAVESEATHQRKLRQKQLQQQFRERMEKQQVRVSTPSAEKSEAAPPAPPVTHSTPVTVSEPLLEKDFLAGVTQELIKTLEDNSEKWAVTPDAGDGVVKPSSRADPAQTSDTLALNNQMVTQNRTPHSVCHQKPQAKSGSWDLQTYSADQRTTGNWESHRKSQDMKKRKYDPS

[16] = IC50 of insulin release inhibition, rat insulinoma INS-1E line, 5 mM glucose, cell-based (AID 1117331); assay type: functional
[17] = molecular target: Peroxisome proliferator-activated receptor gamma/Nuclear receptor coactivator 1 (Homo sapiens, UniProt P37231); assay type: functional;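 note: agonist potency as compounds enhance coactivator SRC-1 recruitment to PPARgamma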
[18] = molecular target: Peroxisome proliferator-activated receptor gamma/Nuclear receptor coactivator 3 (Homo sapiens, UniProt P37231); assay type: functional;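 note: agonist potency for raising coactivator recruitment to the receptor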
[19] = molecular target: Peroxisome proliferator-activated receptor gamma/Nuclear receptor coactivator 2 (Homo sapiens, UniProt P37231); assay type: functional;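 note: agonist potency for raising coactivator recruitment to the receptor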
[20] = Dd2 parasite growth inhibition in erythrocytes – SYBR Green, dry powder samples, set 9, dose response (AID 1159568); assay type: functional, cell-based
[21] = growth inhibition of PfATP4-mutant resistant parasites – NITD609-resistant line, SYBR Green, dry powder, dose response (AID 1159571); assay type: functional, cell-based;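 note: parasites synchronized at ring stage by sorbitol before testing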
[22] = P. falciparum Dd2 growth inhibitors, dose response, SYBR Green, cherry-picked samples (AID 1159567); assay type: functional, cell-based
[23] = Dd2 malaria parasite growth inhibition potency – SYBR Green, dry powder samples, dose response (AID 1159566); assay type: functional, cell-based;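 note: potency for growth inhibition with lower SYBR green DNA signal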
[24] = growth inhibition of yeast DHODH-expressing 3D7 parasites – SYBR Green, dry powder samples, dose response (AID 1159570); assay type: functional, cell-based;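 note: parasite growth measured after 72 hours of compound exposure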

Sequence of Peroxisome proliferator-activated receptor gamma/Nuclear receptor coactivator 2 (P37231 whole entry): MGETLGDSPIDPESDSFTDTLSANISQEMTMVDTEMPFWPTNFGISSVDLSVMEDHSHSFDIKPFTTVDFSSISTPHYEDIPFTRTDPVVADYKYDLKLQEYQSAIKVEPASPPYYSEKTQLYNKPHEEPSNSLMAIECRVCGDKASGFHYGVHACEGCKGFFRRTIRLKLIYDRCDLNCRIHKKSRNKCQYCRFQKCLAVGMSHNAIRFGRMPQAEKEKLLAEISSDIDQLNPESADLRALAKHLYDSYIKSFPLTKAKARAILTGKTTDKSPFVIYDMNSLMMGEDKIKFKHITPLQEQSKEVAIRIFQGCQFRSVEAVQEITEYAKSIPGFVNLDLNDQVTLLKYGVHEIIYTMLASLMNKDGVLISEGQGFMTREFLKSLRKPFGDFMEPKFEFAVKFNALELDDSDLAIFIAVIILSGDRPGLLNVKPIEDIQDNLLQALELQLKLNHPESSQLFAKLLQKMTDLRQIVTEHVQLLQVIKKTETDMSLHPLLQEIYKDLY
Sequence of Peroxisome proliferator-activated receptor gamma/Nuclear receptor coactivator 2 (Q15596 whole entry, further chain): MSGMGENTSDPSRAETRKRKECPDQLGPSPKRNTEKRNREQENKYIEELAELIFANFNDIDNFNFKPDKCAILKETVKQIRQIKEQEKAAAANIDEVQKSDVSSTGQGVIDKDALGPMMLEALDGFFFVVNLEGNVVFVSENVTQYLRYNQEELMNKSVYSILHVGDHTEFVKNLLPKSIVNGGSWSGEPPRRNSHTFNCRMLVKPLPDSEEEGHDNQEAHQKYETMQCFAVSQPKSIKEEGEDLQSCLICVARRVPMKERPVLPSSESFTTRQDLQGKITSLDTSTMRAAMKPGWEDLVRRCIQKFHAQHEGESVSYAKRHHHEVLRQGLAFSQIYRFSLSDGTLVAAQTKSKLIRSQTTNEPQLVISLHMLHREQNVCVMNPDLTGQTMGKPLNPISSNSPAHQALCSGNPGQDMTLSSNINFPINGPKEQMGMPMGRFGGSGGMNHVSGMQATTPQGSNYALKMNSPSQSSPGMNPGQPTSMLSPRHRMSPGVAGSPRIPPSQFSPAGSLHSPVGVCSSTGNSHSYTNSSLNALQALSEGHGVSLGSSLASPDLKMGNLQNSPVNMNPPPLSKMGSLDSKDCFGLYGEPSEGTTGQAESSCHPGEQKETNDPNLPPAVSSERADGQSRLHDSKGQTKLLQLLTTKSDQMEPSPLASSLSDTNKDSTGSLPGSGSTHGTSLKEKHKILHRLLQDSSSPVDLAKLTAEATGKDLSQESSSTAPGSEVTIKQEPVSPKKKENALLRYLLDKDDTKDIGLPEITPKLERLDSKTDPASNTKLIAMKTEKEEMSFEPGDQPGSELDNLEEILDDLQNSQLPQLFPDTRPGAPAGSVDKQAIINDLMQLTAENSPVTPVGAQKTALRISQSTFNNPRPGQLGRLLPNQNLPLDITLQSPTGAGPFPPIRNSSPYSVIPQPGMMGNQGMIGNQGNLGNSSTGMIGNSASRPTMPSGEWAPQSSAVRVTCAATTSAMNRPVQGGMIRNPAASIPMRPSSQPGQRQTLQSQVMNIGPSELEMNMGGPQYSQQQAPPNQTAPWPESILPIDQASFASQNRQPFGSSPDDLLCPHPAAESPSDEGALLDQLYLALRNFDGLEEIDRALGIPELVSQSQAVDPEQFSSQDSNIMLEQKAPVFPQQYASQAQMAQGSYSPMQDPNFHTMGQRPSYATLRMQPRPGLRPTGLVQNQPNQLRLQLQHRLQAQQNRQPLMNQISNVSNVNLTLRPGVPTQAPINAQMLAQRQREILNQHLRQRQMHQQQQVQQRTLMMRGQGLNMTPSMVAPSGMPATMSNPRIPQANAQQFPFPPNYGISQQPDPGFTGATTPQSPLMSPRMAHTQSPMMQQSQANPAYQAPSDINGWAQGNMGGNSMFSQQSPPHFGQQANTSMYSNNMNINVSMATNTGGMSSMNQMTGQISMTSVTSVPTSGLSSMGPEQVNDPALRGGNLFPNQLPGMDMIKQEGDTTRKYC
Sequence of Peroxisome proliferator-activated receptor gamma/Nuclear receptor coactivator 1 (P37231 whole entry): as the sequence (P37231 whole entry) above
Sequence of Peroxisome proliferator-activated receptor gamma/Nuclear receptor coactivator 1 (Q15788 whole entry, further chain): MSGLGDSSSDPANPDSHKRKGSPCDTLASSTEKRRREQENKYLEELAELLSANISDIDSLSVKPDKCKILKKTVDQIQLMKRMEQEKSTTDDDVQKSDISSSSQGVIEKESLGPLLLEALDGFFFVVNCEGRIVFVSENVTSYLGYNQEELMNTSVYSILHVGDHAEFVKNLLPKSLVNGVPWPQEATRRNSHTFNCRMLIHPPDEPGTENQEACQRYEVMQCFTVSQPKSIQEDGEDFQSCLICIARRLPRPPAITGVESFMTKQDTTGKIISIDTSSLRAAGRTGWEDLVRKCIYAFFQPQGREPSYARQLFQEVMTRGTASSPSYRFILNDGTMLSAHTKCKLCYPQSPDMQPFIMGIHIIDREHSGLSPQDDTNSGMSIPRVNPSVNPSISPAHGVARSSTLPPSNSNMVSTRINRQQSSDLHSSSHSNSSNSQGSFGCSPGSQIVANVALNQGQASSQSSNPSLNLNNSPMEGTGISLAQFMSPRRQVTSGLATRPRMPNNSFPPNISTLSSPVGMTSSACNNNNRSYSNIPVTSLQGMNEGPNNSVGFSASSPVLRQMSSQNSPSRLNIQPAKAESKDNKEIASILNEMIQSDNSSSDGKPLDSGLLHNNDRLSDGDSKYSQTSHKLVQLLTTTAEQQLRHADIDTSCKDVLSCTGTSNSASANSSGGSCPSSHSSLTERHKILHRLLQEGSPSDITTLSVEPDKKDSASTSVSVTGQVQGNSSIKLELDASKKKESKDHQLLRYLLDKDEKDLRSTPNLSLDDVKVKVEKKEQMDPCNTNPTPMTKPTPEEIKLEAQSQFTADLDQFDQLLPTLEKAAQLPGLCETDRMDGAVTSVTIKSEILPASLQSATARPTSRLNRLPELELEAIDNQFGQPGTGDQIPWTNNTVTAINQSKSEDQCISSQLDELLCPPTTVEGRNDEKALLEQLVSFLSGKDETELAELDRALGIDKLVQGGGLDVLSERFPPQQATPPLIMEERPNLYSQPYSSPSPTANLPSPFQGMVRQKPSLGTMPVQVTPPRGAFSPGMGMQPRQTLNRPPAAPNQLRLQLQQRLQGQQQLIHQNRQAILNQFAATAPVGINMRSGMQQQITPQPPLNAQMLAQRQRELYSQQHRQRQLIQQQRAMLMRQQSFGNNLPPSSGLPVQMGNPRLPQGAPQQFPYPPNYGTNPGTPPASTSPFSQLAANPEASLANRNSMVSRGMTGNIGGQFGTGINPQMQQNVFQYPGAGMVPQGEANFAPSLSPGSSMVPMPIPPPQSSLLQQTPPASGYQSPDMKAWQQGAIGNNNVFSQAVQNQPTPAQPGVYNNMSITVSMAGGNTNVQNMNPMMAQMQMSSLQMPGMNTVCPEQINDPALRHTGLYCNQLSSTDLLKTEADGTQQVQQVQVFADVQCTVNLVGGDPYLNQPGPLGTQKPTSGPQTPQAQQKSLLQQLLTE
Sequence of Glyceraldehyde-3-phosphate dehydrogenase (P04406 whole entry): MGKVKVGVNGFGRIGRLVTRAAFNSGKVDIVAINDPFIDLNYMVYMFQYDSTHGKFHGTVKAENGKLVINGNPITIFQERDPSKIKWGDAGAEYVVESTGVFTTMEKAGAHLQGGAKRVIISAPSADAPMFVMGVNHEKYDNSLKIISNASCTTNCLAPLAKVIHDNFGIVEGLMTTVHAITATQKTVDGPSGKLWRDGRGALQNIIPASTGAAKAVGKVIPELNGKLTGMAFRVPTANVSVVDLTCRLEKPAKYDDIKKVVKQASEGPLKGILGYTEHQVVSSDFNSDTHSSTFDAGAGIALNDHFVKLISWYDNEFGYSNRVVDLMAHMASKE

Structure (SMILES): CC(=O)Oc1ccccc1/C=C/c1nc2ccccc2c(=O)o1
- IC50 [1]: 5.31 µM (active)

Structure (SMILES): COc1ccc(/C=N/Nc2nnc(-c3ncc[nH]3)c3ccccc23)cc1
- EC50 [2]: > 12 µM (not active)
- EC50 [3]: 0.962 µM (active)
- EC50 [4]: 1.93 µM (active)
- EC50 [5]: 1.34 µM (active)
- EC50 [6]: 65.2 µM (active)
- EC50 [7]: < 0.1 µM (active)

Structure (SMILES): CCOC(=O)N1CCN(S(=O)(=O)c2cc(Br)cc3c2N(C(C)=O)C(C)C3)CC1 (stereo not given)
- EC50 [8]: > 20 µM (not active)
- EC50 [9]: > 20 µM (not active)

Structure (SMILES): COc1ccc(/N=C/c2sc(O)c3ccccc23)cc1
- EC50 [2]: 0.315 µM (active)
- EC50 [3]: 0.228 µM (active)
- EC50 [4]: < 0.1 µM (active)
- EC50 [5]: 0.433 µM (active)
- EC50 [6]: < 0.1 µM (active)
- EC50 [7]: < 0.1 µM (active)

Structure (SMILES): Cc1ccc(-n2ncc3c(NCc4ccc5c(c4)OCO5)ncnc32)c(C)c1
- EC50 [10]: > 195 µM (not active)
- EC50 [8]: > 20 µM (not active)
- EC50 [9]: > 20 µM (not active)

Structure (SMILES): O=C(O)CN1C(=O)/C(=C\c2ccc(C(=O)O)cc2)SC1=S
- IC50 [11]: > 100 µM (not active)
- IC50 [12]: 88.9 µM (active)
- IC50 [13]: > 100 µM (inactive)
- IC50 [14]: 24.5 µM (active)

Structure (SMILES): CCCCOc1cc(C(=O)OCCN(CC)CC)ccc1N [BENOXINATE HYDROCHLORIDE]
- AC50 [15]: 33.9 µM (active)
- IC50 [16]: 15.5 µM (inactive)

Structure (SMILES): Cc1cc(C)c2c(n1)nn1c(N3CCN(c4ccccc4)CC3)cc(C)nc21
- EC50 [8]: > 20 µM (not active)
- EC50 [9]: > 20 µM (not active)

Structure (SMILES): COc1ccc(C(=O)CSc2nnc(-c3ccc(S(=O)(=O)N4CCOCC4)cc3)o2)cc1
- EC50 [17]: 40.5 µM (not active)
- EC50 [18]: 53.5 µM (not active)
- EC50 [19]: 26.1 µM (not active)

Structure (SMILES): O=C(O)CN1C(=O)/C(=C\c2cccc([N+](=O)[O-])c2)SC1=S
- IC50 [11]: > 100 µM (not active)
- IC50 [12]: > 100 µM (inactive)
- IC50 [13]: > 100 µM (inactive)
- IC50 [14]: > 100 µM (inactive)

Structure (SMILES): C[C@H]1CN([C@@H](C)CO)C(=O)c2cccc(NC(=O)NC3CCCCC3)c2O[C@H]1CN(C)Cc1ccc(C(F)(F)F)cc1
- AC50 [20]: 31.7 µM (active)

Structure (SMILES): CCOC(=O)c1c(NC(=O)Cc2cccs2)sc(C(=O)NC2CCCC2)c1C
- EC50 [17]: > 79.4 µM (not active)
- EC50 [18]: > 79.4 µM (not active)
- EC50 [19]: > 79.4 µM (not active)

Structure (SMILES): COc1ccccc1N(CC(=O)NCC1CCCO1)C(=O)CCC(=O)Nc1nccs1 (stereo not given)
- EC50 [17]: > 79.4 µM (not active)
- EC50 [18]: > 79.4 µM (not active)
- EC50 [19]: > 79.4 µM (not active)

Structure (SMILES): C[C@@H]1CN([C@@H](C)CO)C(=O)c2cccc(NC(=O)c3cnccn3)c2O[C@@H]1CN(C)Cc1ccc(-c2ccccc2)cc1
- AC50 [21]: 0.357 µM (active)
- AC50 [22]: 1.14 µM (active)
- AC50 [23]: 0.381 µM (active)
- AC50 [20]: 0.378 µM (active)
- AC50 [24]: 0.0947 µM (active)
